According to BindingDB's records for doi:10.7270/Q2TX3CTT (Broad Institute, 2010):
Where a name gives a salt, the structure may show the parent alone.

Molecular target: Glycogen synthase kinase-3 beta (Homo sapiens, UniProt P49841)
Assay: GSK3beta kinase inhibitor potency, dose response, biochemical, luminescence, cell-free homogeneous, retest (AID 434954)

Glycogen synthase kinase-3 beta, sequence (P49841 whole entry): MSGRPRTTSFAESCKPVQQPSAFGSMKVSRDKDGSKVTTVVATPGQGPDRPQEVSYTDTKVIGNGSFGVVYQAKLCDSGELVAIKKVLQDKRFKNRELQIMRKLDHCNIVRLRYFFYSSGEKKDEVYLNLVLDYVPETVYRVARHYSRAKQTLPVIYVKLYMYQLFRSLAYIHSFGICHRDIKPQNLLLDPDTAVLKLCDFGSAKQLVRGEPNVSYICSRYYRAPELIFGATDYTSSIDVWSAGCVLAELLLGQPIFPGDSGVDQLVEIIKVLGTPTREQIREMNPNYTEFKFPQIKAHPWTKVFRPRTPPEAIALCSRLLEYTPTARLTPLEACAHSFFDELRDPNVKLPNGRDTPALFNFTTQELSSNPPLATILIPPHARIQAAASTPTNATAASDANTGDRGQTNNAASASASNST

SMILES	EC50
COc1ccc(C(C)=NNC(=O)CNC(=O)Cc2ccccc2)c(OC)c1 [N-[2-[2-[1-(2,4-dimethoxyphenyl)ethylidene]hydrazinyl]-2-oxoethyl]-2-phenylacetamide]	> 300 µM
O=C(NCC(c1ccco1)N1CCN(c2ccc(F)cc2)CC1)c1ccc2c(c1)OCO2 (stereo unspecified) [N-[2-[4-(4-fluorophenyl)-1-piperazinyl]-2-(2-furanyl)ethyl]-1,3-benzodioxole-5-carboxamide]	> 300 µM
Cc1ccc(C(C(=O)NC2CCCCC2)N(CC2CCCO2)C(=O)CNC(=O)c2cccs2)cc1 (stereo unspecified) [N-[2-[[2-(cyclohexylamino)-1-(4-methylphenyl)-2-oxoethyl]-(oxolan-2-ylmethyl)amino]-2-oxoethyl]thiophene-2-carboxamide]	> 300 µM
Cc1ccc(N2CC(C(=O)Nc3c4c(nn3C(C)(C)C)CS(=O)(=O)C4)CC2=O)cc1 (stereo unspecified) [N-[2-tert-butyl-5,5-bis(oxidanylidene)-4,6-dihydrothieno[3,4-c]pyrazol-3-yl]-1-(4-methylphenyl)-5-oxidanylidene-pyrrolidine-3-carboxamide]	> 300 µM
COCCn1c(SCC(=O)Nc2nc(C)c(Cl)cc2Cl)nc2ccccc21 [N-[3,5-bis(chloranyl)-6-methyl-pyridin-2-yl]-2-[1-(2-methoxyethyl)benzimidazol-2-yl]sulfanyl-ethanamide]	> 300 µM
O=C(Nc1cccc(-c2cnc3ccccc3n2)c1)c1ccccc1 [N-[3-(2-quinoxalinyl)phenyl]benzamide]	> 300 µM
CCN1CCN(CCCNC(=O)c2ccc3c(c2)NC(=O)c2ccccc2S3)CC1 [N-[3-(4-ethylpiperazin-1-yl)propyl]-6-oxo-5H-benzo[b][1,4]benzothiazepine-3-carboxamide]	> 300 µM
CN1CCN(CCCNC(=O)Nc2ccc([N+](=O)[O-])cc2)CC1 [N-[3-(4-methylpiperazin-1-yl)propyl]-N'-(4-nitrophenyl)urea]	> 300 µM
O=C(NCCCN1CCN(Cc2ccccc2)CC1)C1CCN(S(=O)(=O)N2CCCC2)CC1 [N-[3-[4-(phenylmethyl)-1-piperazinyl]propyl]-1-(1-pyrrolidinylsulfonyl)-4-piperidinecarboxamide]	> 300 µM
CC1Cc2cc(-c3csc(NC(=O)Cc4ccccc4)n3)ccc2N1S(C)(=O)=O (stereo unspecified) [N-[4-(1-Methanesulfonyl-2-methyl-2,3-dihydro-1H-indol-5-yl)-thiazol-2-yl]-2-phenyl-acetamide]	> 300 µM
Cc1ncc(CN2CCCC(C(=O)Nc3ccc(-c4cccc(F)c4)cc3)C2)cn1 (stereo unspecified) [N-[4-(3-fluorophenyl)phenyl]-1-[(2-methylpyrimidin-5-yl)methyl]piperidine-3-carboxamide]	> 300 µM
O=C(Nc1ccc(N2CCN(Cc3ccccc3)CC2)cc1)c1ccccc1[N+](=O)[O-] [N-[4-(4-benzyl-1-piperazinyl)phenyl]-2-nitrobenzamide]	> 300 µM
CC(=O)Nc1ccc(S(=O)(=O)NCc2ccc(C)n2C)cc1 [N-[4-[(1,5-dimethylpyrrol-2-yl)methylsulfamoyl]phenyl]ethanamide]	> 300 µM
CC(=O)Nc1ccc(S(=O)(=O)N(Cc2cccnc2)Cc2cc3ccccc3nc2O)cc1 [N-[4-[(2-oxidanylidene-1H-quinolin-3-yl)methyl-(pyridin-3-ylmethyl)sulfamoyl]phenyl]ethanamide]	> 300 µM
CCCCC(=O)Nc1ccc(C(=O)NNC(=O)CCCOc2ccc(Cl)cc2Cl)cc1 [N-[4-[[[4-(2,4-dichlorophenoxy)-1-oxobutyl]hydrazo]-oxomethyl]phenyl]pentanamide]	> 300 µM
CC1(C)CC2CC(C)(CN2S(=O)(=O)c2ccc(C(=O)Nc3ccc(Cl)c(S(=O)(=O)N4CCOCC4)c3)cc2)C1 (stereo unspecified) [N-[4-chloro-3-(4-morpholinylsulfonyl)phenyl]-4-[(3,3,5-trimethyl-7-azabicyclo[3.2.1]octan-7-yl)sulfonyl]benzamide]	> 300 µM
CCCCC(=O)Nc1cc(C)c(NC(=O)c2cccs2)cn1 [N-[4-methyl-6-(1-oxopentylamino)-3-pyridinyl]-2-thiophenecarboxamide]	> 300 µM
CCCCC(=O)Nc1ncc(S(=O)(=O)c2ccc([N+](=O)[O-])cc2)s1 [N-[5-(4-nitrophenyl)sulfonyl-2-thiazolyl]pentanamide]	> 300 µM
CC(=O)Nc1nnc(CSCc2ccc(F)cc2)s1 [N-[5-[(4-fluorophenyl)methylsulfanylmethyl]-1,3,4-thiadiazol-2-yl]acetamide]	> 300 µM
CCOc1ccc2c(c1)C(NC(C)=O)C(=O)N2CCN1CCOCC1 (stereo unspecified) [N-[5-ethoxy-1-(2-morpholin-4-ylethyl)-2-oxo-3H-indol-3-yl]acetamide;hydrochloride]	> 300 µM
CCc1cc(C(=O)c2ccc(OC)cc2)c(NC(=O)CN2CCN(C)CC2)s1 [N-[5-ethyl-3-(4-methoxyphenyl)carbonyl-thiophen-2-yl]-2-(4-methylpiperazin-1-yl)ethanamide]	> 300 µM
Cc1cc(C(=O)c2ccccc2)c(NC(=O)CN2CCOCC2)s1 [N-[5-methyl-3-(phenylcarbonyl)thiophen-2-yl]-2-morpholin-4-yl-ethanamide]	> 300 µM

Now from value to compound:

EC50	SMILES
> 300 µM	Cc1ccc(SCC(=O)Nc2ccc3c(c2)C(=O)NC3=O)cc1 [N-[1,3-bis(oxidanylidene)isoindol-5-yl]-2-(4-methylphenyl)sulfanyl-ethanamide]
21.5 µM	CC(C)Cn1nc(NC(=O)c2cccs2)c2cc3ccccc3nc21 [N-[1-(2-methylpropyl)-3-pyrazolo[3,4-b]quinolinyl]-2-thiophenecarboxamide]
> 300 µM	CC(N=Nc1nccnc1Cl)c1ccc(Br)cc1 (stereo unspecified) [N-[1-(4-bromophenyl)ethylideneamino]-3-chloranyl-pyrazin-2-amine]
> 300 µM	COc1ccc(S(=O)(=O)NCC(c2ccc3c(c2)OCO3)N2CCOCC2)cc1 (stereo unspecified) [N-[2-(1,3-benzodioxol-5-yl)-2-morpholin-4-ylethyl]-4-methoxybenzenesulfonamide]
> 300 µM	O=C(NCC(c1ccco1)N1CCc2ccccc21)c1c(F)cccc1F (stereo unspecified) [N-[2-(2,3-dihydroindol-1-yl)-2-(furan-2-yl)ethyl]-2,6-bis(fluoranyl)benzamide]
13.9 µM	O=C(Nc1ccc(O)c2c(=O)cc(-c3ccccc3Cl)oc12)c1ccc(F)cc1 [N-[2-(2-chlorophenyl)-5-oxidanyl-4-oxidanylidene-chromen-8-yl]-4-fluoranyl-benzamide]
> 300 µM	COc1cccc(C(=O)NCC(c2ccco2)N2CCc3ccccc3C2)c1 (stereo unspecified) [N-[2-(3,4-dihydro-1H-isoquinolin-2-yl)-2-(furan-2-yl)ethyl]-3-methoxy-benzamide]
> 300 µM	COc1ccccc1N(CC(=O)N1CCc2ccccc2C1)S(C)(=O)=O [N-[2-(3,4-dihydro-1H-isoquinolin-2-yl)-2-oxoethyl]-N-(2-methoxyphenyl)methanesulfonamide]
> 300 µM	COc1ccc(CCNc2nc(-c3cccnc3)nc3ccccc23)cc1OC [N-[2-(3,4-dimethoxyphenyl)ethyl]-2-pyridin-3-ylquinazolin-4-amine]
> 300 µM	CCN1CCN(c2cc(C)c3cc(NC(=O)c4cccc(OC)c4)ccc3n2)CC1 [N-[2-(4-ethylpiperazin-1-yl)-4-methyl-quinolin-6-yl]-3-methoxy-benzamide]
> 300 µM	CCN1CCN(c2cc(C)c3cc(NC(=O)c4cc(OC)cc(OC)c4)ccc3n2)CC1 [N-[2-(4-ethylpiperazin-1-yl)-4-methylquinolin-6-yl]-3,5-dimethoxybenzamide]
> 300 µM	CN1CCN(CCNC(=O)Nc2ccccc2[N+](=O)[O-])CC1 [N-[2-(4-methylpiperazin-1-yl)ethyl]-N'-(2-nitrophenyl)urea]
> 300 µM	CCN(CC)CCNC(=O)C(=O)Nc1ccc2c(c1)N(S(=O)(=O)c1cccs1)CCC2 [N-[2-(diethylamino)ethyl]-N'-(1-thiophen-2-ylsulfonyl-3,4-dihydro-2H-quinolin-7-yl)oxamide]
> 300 µM	Cc1ccc2sc(N(CCN(C)C)C(=O)c3ccc(S(=O)(=O)N4CC(C)OC(C)C4)cc3)nc2c1C (stereo unspecified) [N-[2-(dimethylamino)ethyl]-N-(4,5-dimethyl-1,3-benzothiazol-2-yl)-4-(2,6-dimethylmorpholin-4-yl)sulfonyl-benzamide;hydrochloride]
> 300 µM	Cc1ccc(S(=O)(=O)NCC(=O)N(CCc2ccccc2)CC(=O)NCc2ccco2)cc1 [N-[2-(furan-2-ylmethylamino)-2-oxoethyl]-2-[(4-methylphenyl)sulfonylamino]-N-(2-phenylethyl)acetamide]
> 300 µM	CCn1cc(CN2CCC(n3nccc3NC(=O)CCCc3ccccc3)CC2)cn1 [N-[2-[1-[(1-ethylpyrazol-4-yl)methyl]piperidin-4-yl]pyrazol-3-yl]-4-phenyl-butanamide]
> 300 µM	O=C(Nc1ccnn1C1CCN(Cc2cccc(OCCO)c2)CC1)C1CCCC1 [N-[2-[1-[[3-(2-hydroxyethyloxy)phenyl]methyl]piperidin-4-yl]pyrazol-3-yl]cyclopentanecarboxamide]
> 300 µM	CCC(C)NCCOCCOc1ccc(Cl)cc1Br (stereo unspecified) [N-[2-[2-(2-bromo-4-chlorophenoxy)ethoxy]ethyl]-2-butanamine;oxalic acid]
34.7 µM	c1ccc(-c2nc(NCCCn3ccnc3)c3oc4ccccc4c3n2)cc1 [N-[3-(1-imidazolyl)propyl]-2-phenyl-4-benzofuro[3,2-d]pyrimidinamine;hydrochloride]
11.3 µM	CCCN(CCC)CCCNc1ccc2nnc(-c3ccc(F)cc3)n2n1 [N-[3-(4-fluorophenyl)-[1,2,4]triazolo[4,3-b]pyridazin-6-yl]-N',N'-dipropyl-propane-1,3-diamine]
156 µM	COc1ccccc1N1CCN(CCCNC(=O)C2CCCN(c3ncnc4c3nc3n4CCCCC3)C2)CC1 (stereo unspecified) [N-[3-[4-(2-methoxyphenyl)piperazin-1-yl]propyl]-1-(7,8,9,10-tetrahydro-6H-purino[9,8-a]azepin-4-yl)piperidine-3-carboxamide]
29.2 µM	O=C(Nc1sccc1C(=O)N1CCOCC1)c1cccnc1 [N-[3-[4-morpholinyl(oxo)methyl]-2-thiophenyl]-3-pyridinecarboxamide]
23.8 µM	CC(=O)Nc1cc(-c2ccc(Cl)cc2)n[nH]1 [N-[5-(4-chlorophenyl)-1H-pyrazol-3-yl]acetamide]
18.8 µM	O=C1N=C(NS(=O)(=O)Cc2ccccc2)S/C1=C/c1ccc2c(c1)OCO2 [N-[5-[1-Benzo[1,3]dioxol-5-yl-meth-(E)-ylidene]-4-oxo-thiazolidin-(2E)-ylidene]-C-phenyl-methanesulfon amide]
